Some test systems named below: 786-0; CCRF-CEM; COLO 205; EKVX; HCT-116; HL-60; IGROV-1; M14; NCI-H460; NCI-H522; NCI/ADR-RES; OVCAR-4; OVCAR-8; PC-3; RPMI-8226; RXF 393; SK-MEL-28; SK-OV-3; SNB-75; U-251.
Holding throughout (assay): inhibition of tumour cell growth, NCI panel, 48 h

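Exposure lasted 48 hours, with cells grown in 96-well plates and compounds tested at five concentrations. GI50: concentration for 50% inhibition of growth.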 Calls of active or inactive are those of the source. No stated cut-off is given here; in the data, active = GI50 up to about 1.1 µM and inactive = higher.

`COc1cc(Nc2n[nH]c(NS(=O)(=O)c3cc(C)c(Cl)cc3S)n2)cc(OC)c1OC`: the GI50 in the test with 786-0, in the test with CCRF-CEM, in the test with COLO 205, in the test on EKVX, in the test with HCT-116 and in the test on HL-60 was > 100 µM (inactive) in each case. For the same compound, the GI50 with IGROV-1, in the test on M14, in the test with NCI-H460, with NCI-H522, in the test on NCI/ADR-RES and in the test on OVCAR-4 was > 100 µM (inactive) each time. Moreover, the GI50 in the test on OVCAR-8, in the test with PC-3, with RPMI-8226, in the test on RXF 393, in the test with SK-MEL-28 and in the test with SK-OV-3 was > 100 µM (inactive) in each case. For the same compound, the GI50 with SNB-75 and with U-251 was > 100 µM (inactive) in each case.
Turning to `[N-]=[N+]=NC(c1ccccc1)(c1ccccc1)c1ccccc1`, the GI50 with 786-0 is 17.1 µM (inactive); in the test on CCRF-CEM it was 19.1 µM (inactive); in the test on COLO 205, 14.6 µM (inactive); in the test with EKVX it was 14.2 µM (inactive); in the test with HCT-116, 16 µM (inactive); in the test on HL-60 it was 17.2 µM (inactive). The GI50 was 25 µM (inactive) with IGROV-1; 18.4 µM (inactive) with M14; 16.6 µM (inactive) with NCI-H460; 16.5 µM (inactive) in the test on NCI-H522; 16.7 µM (inactive) in the test with NCI/ADR-RES; 20.3 µM (inactive) in the test with OVCAR-4. Further, the GI50 was 17.3 µM (inactive) with OVCAR-8; 15.2 µM (inactive) with PC-3; 19.3 µM (inactive) in the test with RPMI-8226; 15.7 µM (inactive) in the test with RXF 393; 18.4 µM (inactive) in the test on SK-MEL-28; 29.4 µM (inactive) in the test with SK-OV-3. The GI50 in the test with SNB-75 is 16.9 µM (inactive); in the test with U-251, 15.8 µM (inactive).
In the case of `CC(C)(C)N/N=C(/Cc1nc2c3c(ccc2nc1O)C(=O)c1ccccc1C3=O)C(=O)NC1=C(Cl)C(=O)c2ccccc2C1=O`, the GI50 in the test with 786-0 is 33.2 µM (inactive); with CCRF-CEM, 14.4 µM (inactive); in the test on COLO 205, 24 µM (inactive); in the test on EKVX, 61.2 µM (inactive); in the test with HCT-116, 13.9 µM (inactive); in the test on HL-60 it was 10.3 µM (inactive). The GI50 with IGROV-1 was 5.14 µM (inactive); with M14, 15.5 µM (inactive); in the test on NCI-H460 it was 5.42 µM (inactive); in the test on NCI-H522 it was 16.9 µM (inactive); in the test on NCI/ADR-RES, 5.77 µM (inactive); in the test with OVCAR-4, 5.16 µM (inactive). Moreover, the GI50 is 10 µM (inactive) in the test on OVCAR-8; 7.71 µM (inactive) in the test with PC-3; 78.9 µM (inactive) in the test on RPMI-8226; 6.18 µM (inactive) in the test on RXF 393; > 100 µM (inactive) in the test with SK-MEL-28; 7.16 µM (inactive) in the test with SK-OV-3. Further, the GI50 is 2.38 µM (inactive) in the test with SNB-75 and 47.8 µM (inactive) in the test on U-251.
`O=C(NCCCCNCCCNC(=O)C(F)(F)F)C(F)(F)F`: the GI50 is > 100 µM (inactive) in the test on 786-0; > 100 µM (inactive) in the test with CCRF-CEM; > 100 µM (inactive) in the test with COLO 205; > 100 µM (inactive) in the test on EKVX; > 100 µM (inactive) in the test on HCT-116; 5.07 µM (inactive) in the test with HL-60. Also, the GI50 in the test on IGROV-1, with M14, in the test on NCI-H460, in the test on NCI-H522, with NCI/ADR-RES and in the test with OVCAR-4 was > 100 µM (inactive) throughout. For the same compound, the GI50 in the test with OVCAR-8 is > 100 µM (inactive); in the test on PC-3, > 100 µM (inactive); in the test on RPMI-8226, > 100 µM (inactive); in the test with RXF 393, > 100 µM (inactive); in the test with SK-MEL-28, > 100 µM (inactive); in the test with SK-OV-3 it was 26.8 µM (inactive). In addition, the GI50 in the test with SNB-75 and in the test with U-251 was > 100 µM (inactive) in each case.
Take `CCn1c(CCl)nc2c1C(=O)c1ccccc1C2=O`: the GI50 in the test with 786-0 is 3.04 µM (inactive); in the test on CCRF-CEM, 0.171 µM (active); in the test with EKVX it was 2.46 µM (inactive); in the test with HCT-116, 2.13 µM (inactive); in the test with HL-60 it was 2.43 µM (inactive); in the test on IGROV-1, 1.7 µM (inactive). Further, the GI50 was 1.63 µM (inactive) in the test with M14; 1.98 µM (inactive) in the test on NCI-H460; 0.292 µM (active) in the test on NCI-H522; 2.48 µM (inactive) with NCI/ADR-RES; 1.66 µM (inactive) in the test on OVCAR-4; 1.58 µM (inactive) in the test on OVCAR-8. For the same compound, the GI50 with PC-3 was 1.91 µM (inactive); in the test with RPMI-8226 it was 2.12 µM (inactive); in the test with RXF 393 it was 1.85 µM (inactive); in the test on SK-MEL-28 it was 1.76 µM (inactive); with SK-OV-3 it was 0.515 µM (active); in the test on SNB-75 it was 1.58 µM (inactive). For the same compound, the GI50 with U-251 was 1.71 µM (inactive).
As for `NC1=Nc2cc(C(F)(F)F)ccc2Sc2nc3ccccc3n21`, the GI50 in the test on 786-0 is 11.6 µM (inactive); in the test with CCRF-CEM it was 2.64 µM (inactive); in the test on COLO 205 it was > 21.2 µM (inactive); in the test with EKVX it was 13.8 µM (inactive); in the test on HCT-116 it was 3.73 µM (inactive); in the test with HL-60, 3.15 µM (inactive). In addition, the GI50 with IGROV-1 is > 25.7 µM (inactive); in the test on M14 it was 3.98 µM (inactive); with NCI-H460, 10.1 µM (inactive); with NCI-H522, 10.4 µM (inactive); in the test with NCI/ADR-RES, > 100 µM (inactive); in the test on OVCAR-4, 17.7 µM (inactive). For the same compound, the GI50 with OVCAR-8 is 12.5 µM (inactive); with PC-3, 10.3 µM (inactive); with RPMI-8226, 6.25 µM (inactive); with RXF 393, > 53.5 µM (inactive); with SK-MEL-28, > 100 µM (inactive); in the test with SK-OV-3 it was 37.5 µM (inactive). Also, the GI50 with SNB-75 was 19.9 µM (inactive); in the test with U-251 it was 5.56 µM (inactive).
Turning to `Cc1ccccc1C(=O)N/N=C/c1ccc(Sc2nccn2C)c([N+](=O)[O-])c1`, the GI50 with 786-0 was > 100 µM (inactive); in the test with CCRF-CEM, 36.5 µM (inactive); in the test on COLO 205, 56 µM (inactive); in the test on EKVX it was 64.9 µM (inactive); in the test with HCT-116, 84.3 µM (inactive); with HL-60 it was 44.3 µM (inactive). For the same compound, the GI50 in the test on IGROV-1 was 35.6 µM (inactive); in the test with M14, > 100 µM (inactive); with NCI-H460 it was 49 µM (inactive); in the test on NCI-H522, 61.9 µM (inactive); in the test on NCI/ADR-RES it was > 100 µM (inactive); in the test with OVCAR-4 it was 56.2 µM (inactive). Further, the GI50 in the test with OVCAR-8 was 72.1 µM (inactive); in the test with PC-3, 67.8 µM (inactive); with RPMI-8226, 47.9 µM (inactive); in the test with RXF 393 it was 74.3 µM (inactive); in the test on SK-MEL-28, > 100 µM (inactive); in the test with SK-OV-3, > 100 µM (inactive). Besides, the GI50 in the test on SNB-75 was 63.2 µM (inactive); with U-251, 85.1 µM (inactive).
Regarding `O=C(O)CSc1nnc(CCCCCCCCc2nnc(SCC(=O)O)o2)o1`, the GI50 in the test with 786-0, in the test with CCRF-CEM, in the test with COLO 205, in the test with EKVX, in the test with HCT-116 and in the test on HL-60 was > 100 µM (inactive) each time. Also, the GI50 with IGROV-1, with M14, in the test on NCI-H460, in the test with NCI-H522, in the test with NCI/ADR-RES and with OVCAR-4 was > 100 µM (inactive) throughout. In addition, the GI50 is 55.5 µM (inactive) with OVCAR-8; > 100 µM (inactive) in the test on PC-3; > 100 µM (inactive) in the test with RPMI-8226; 38.5 µM (inactive) in the test on RXF 393; > 100 µM (inactive) in the test on SK-MEL-28; > 100 µM (inactive) with SK-OV-3. Moreover, the GI50 in the test with SNB-75 was 21.9 µM (inactive); in the test with U-251, > 100 µM (inactive).
As for `O=C1c2ccccc2C2CNC1(O)c1ccccc12` (centres undefined), the GI50 in the test on 786-0, in the test on CCRF-CEM, in the test on COLO 205, with EKVX, in the test on HCT-116 and with HL-60 was > 100 µM (inactive) throughout. Moreover, the GI50 with IGROV-1, with M14, with NCI-H460, in the test on NCI-H522, in the test on NCI/ADR-RES and in the test with OVCAR-4 was > 100 µM (inactive) in each case. In addition, the GI50 in the test on OVCAR-8, with PC-3, in the test on RPMI-8226, with RXF 393, in the test with SK-MEL-28 and in the test with SK-OV-3 was > 100 µM (inactive) in each case. Besides, the GI50 with SNB-75 and in the test on U-251 was > 100 µM (inactive) in each case.
On to `Cn1cc(S(=O)(=O)NC(=O)Nc2ccc(Cl)cc2)c2ccccc21`, for which the GI50 in the test on 786-0 is > 100 µM (inactive); with CCRF-CEM it was > 100 µM (inactive); with COLO 205, 30.3 µM (inactive); in the test on EKVX it was > 100 µM (inactive); in the test with HCT-116 it was 32.4 µM (inactive); with HL-60 it was > 100 µM (inactive). The GI50 in the test with IGROV-1 was 13.3 µM (inactive); with M14 it was > 100 µM (inactive); with NCI-H460 it was 57.4 µM (inactive); in the test with NCI-H522, 24.5 µM (inactive); with NCI/ADR-RES, 38.6 µM (inactive); with OVCAR-4, > 100 µM (inactive). Also, the GI50 in the test on OVCAR-8 is 82.2 µM (inactive); with PC-3, 43.9 µM (inactive); in the test on RPMI-8226, > 100 µM (inactive); in the test on RXF 393, > 100 µM (inactive); in the test on SK-MEL-28 it was > 100 µM (inactive); with SK-OV-3 it was 55.5 µM (inactive). The GI50 was > 100 µM (inactive) with SNB-75 and 41.9 µM (inactive) with U-251.

The record behind these values is ChEMBL document CHEMBL1201862, “PubChem BioAssay data set” (2004).
